In brackets after ≈: the same amount, converted by molar mass.
Tests used:
[1] = system: HT-29; assay: Cytotoxicity against human HT-29 cells; format: functional; details: read-out: ED50 (the source's name)
[2] = system: A549; assay: Cytotoxicity against human A549 cells; format: functional; details: read-out: ED50 (the source's name)
[3] = system: MCF7; assay: Cytotoxicity against human MCF7 cells; format: functional; details: read-out: ED50 (the source's name)
[4] = Toxicity against brine shrimp; format: organism-based; details: artemia, in vivo

In the case of `COc1cc([C@@H]2O[C@@H](c3cc(OC)c(OC)c(OC)c3)[C@H](C)[C@H]2C)cc(OC)c1OC` [GRANDISIN], the EC50 [1] is reported as over 10 µg/mL, the EC50 [2] is reported as over 10 µg/mL and the EC50 [3] is reported as over 10 µg/mL. The LC50 [4] was 21 µg/mL (≈ 48.6 µM).

— ChEMBL document CHEMBL1150209, “(-)-Grandisin form Cryptocarya crassinervia” (J Nat Prod, 1991)
